# Experimental data: patent US9347937B2, “Vaccine comprising Amb a 1 peptides for use in the treatment of ragweed allergy” (Circassia Limited, priority 2008, dated 2016)
# No end group written: not given here.
# Columns and labels:
# [1] = system: blood basophils from ragweed allergic subjects; test: Histamine release assay (Immunotech Histamine Release Immunoassay kit); conditions: for Subjects with histamine release >15% of positive control: 43 or 20 subjects, highest dose tested 10 μg/ml
# Description: Peptides or combinations of peptides that induce histamine release frequently may be considered unsuitable for inclusion in the peptide vaccine.
# Histamine release requires the crosslinking of adjacent specific IgE molecules on the surface of the basophil.
# Histamine release from fresh peripheral whole blood from ragweed allergic subjects was evaluated. Peripheral blood basophils were used as a surrogate for tissue mast cells which were not practical to assay.
# Histamine release in response to whole ragweed allergen extract was measured in each subject to confirm basophil sensitisation. A positive control, representing total histamine release, generated by freeze/thawing the cells twice, was included in each assay. A negative control for spontaneous histamine release was generated by incubating cells in buffer only.
# The assay was performed using the Immunotech Histamine Release Immunoassay kit according to the manufacturer's instructions. Following the in vitro challenge of blood basophils with peptides, peptide mixes, whole allergen or buffer in microtitre plate wells, supernatants were removed and the histamine in the samples converted to acyl histamine. Acylated samples were tested by a competitive acyl histamine ELISA.
# Peptides were assayed for their ability to induce histamine release over a 5 log 10 range (1 to 10,000 ng/ml). The concentration range assayed was selected based on theoretical in vivo doses of peptide that may be achieved during therapy. […] Whole ragweed allergen extract was used over a slightly higher concentration range (10 to 100,000 ng/ml).
# Single measurements were performed for each dilution. After completion of the ELISA, individual histamine levels were determined by interpolation from the standard curve generated in the ELISA assay. Results from samples were adjusted to allow for dilution.
# [2] = In vitro solubility testing in an acidic environment; format: physicochemical
# Description: Accordingly, the inventors have determined that RGW03B is preferred over RGW03.
# The modified peptides were tested for solubility and their ability to induce IL-10 from PBMC in the presence of the mixture of peptides identified in FIG. 1 (RGW01+RGW03B+RGW04A+RGW02+RGW05+RGW06A). Controls included the peptide mixture with no RGW07 variant and with whole Amb a 1 allergen.
# [3] = pH 2.97 0.1 mM HCl, 0.5% (w/v) 1-thioglycerol (ca. 46 mM), 230 mM trehalose
# [4] = pH 2.97, Table 6, RGW07 and variants, acidic environment
sequence,measurement,setting,value
GSSQIWIDHSSLSKS [RGW02],Maximum histamine release (% of positive control at 10 μg/mL),[1],0%
same,Mean histamine release of 43 or 20 subjects as a % of positive control at 10 μg/mL,[1],1%
same,Subjects with histamine release >15% of positive control,[1],0/43
GMIKSNDGPPI [RGW01],Maximum histamine release (% of positive control at 10 μg/mL),[1],0%
same,Mean histamine release of 43 or 20 subjects as a % of positive control at 10 μg/mL,[1],1%
same,Subjects with histamine release >15% of positive control,[1],0/43
KEGTLRFAAAQNRP [RGW05],Maximum histamine release (% of positive control at 10 μg/mL),[1],0%
same,Mean histamine release of 43 or 20 subjects as a % of positive control at 10 μg/mL,[1],0%
same,Subjects with histamine release >15% of positive control,[1],0/43
RDLLENGAIFLPSG [RGW03B],solubility,[2]; [3],3850 µg/mL
same,Maximum histamine release (% of positive control at 10 μg/mL),[1],0%
same,Mean histamine release of 43 or 20 subjects as a % of positive control at 10 μg/mL,[1],1%
same,Subjects with histamine release >15% of positive control,[1],0/43
GEAAIKLTSSAGVLS [RGW07],solubility in an acidic environment,[2]; acidic environment,poor solubility
same,solubility,[2]; [4],700 µg/mL
same,Maximum histamine release (% of positive control at 10 μg/mL),[1],0%
same,Mean histamine release of 43 or 20 subjects as a % of positive control at 10 μg/mL,[1],1%
same,Subjects with histamine release >15% of positive control,[1],0/43
AINNDKTIDGRGAKVE [RGW06A],Maximum histamine release (% of positive control at 10 μg/mL),[1],0%
same,Mean histamine release of 43 or 20 subjects as a % of positive control at 10 μg/mL,[1],1%
same,Subjects with histamine release >15% of positive control,[1],0/43
KDLLENGAIFVTSG [RGW03],solubility,[2]; [3],< 620 µg/mL
KGEAAIKLTSSAGVLSK [RGW07C],solubility,[2]; [4],1550 µg/mL
KGEAAIKLTSSAGVLSKK [RGW07D],solubility,[2]; [4],4260 µg/mL
same,Maximum histamine release (% of positive control at 10 μg/mL),[1],0%
same,Mean histamine release of 43 or 20 subjects as a % of positive control at 10 μg/mL,[1],3%
same,Subjects with histamine release >15% of positive control,[1],0/20
SAGMIPAEPGEA [RGW04A],Maximum histamine release (% of positive control at 10 μg/mL),[1],0%
same,Mean histamine release of 43 or 20 subjects as a % of positive control at 10 μg/mL,[1],0%
same,Subjects with histamine release >15% of positive control,[1],0/43
